Experimental data reported in patent publication US20080221132A1, “Multi-Functional Small Molecules as Anti-Proliferative Agents” (priority 2006, published 2008).
Like-named read-outs stand apart in the source and are kept apart here.

What was measured:
Lung_H460 = test: Cell proliferation assay (ATPlite), H460; format: cell-based; settings: Homo sapiens, NCI-H460; TABLE C; 72 hours, 0.5% fetal bovine serum, ATP content; read-out: IC50 grading, Lung_H460
Experimental: (§1) A representative number of compounds were assayed against several different cell lines using the cell proliferation assay:
(§2) Cell Proliferation Assay:
(§3) Cancer cell lines were plated at 5,000 to 10,000 per well in 96-well flatted bottomed plates with various concentration of compounds. The cells were incubated with compounds for 72 hours in the presence of 0.5% of fetal bovine serum. Growth inhibition was accessed by adenosine triphosphate (ATP) content assay using Perkin Elmer ATPlite kit. ATPlite is an ATP monitoring system based on firefly luciferase. Briefly, 25 μl of mammalian cell lysis solution was added to 50 μl of phenol red-free culture medium per well to lyse the cells and stabilize the ATP. 25 μl of substrate solution was then added to the well and subsequently the luminescence was measured.

[1] = both, Sprague Dawley, rat, in vivo, iv, 8 days
Experimental: The experimental methods used for the toxicity study below are described as follows:
2. Single dosing MTD in rats • a. Sprague Dawley, male and female, 240-260 gram • b. Dosing at 0, 25, 50, 100, 200 mg/kg, iv infusion 5 min • c. 6 rats per group (3 male and 3 female)
Stock solution is diluted with 30% CAPTISOL before use.

[2] = system: Prostate_PC3 (PC-3, prostate adenocarcinoma); test: Cell proliferation assay (ATPlite), PC3; format: cell-based
Experimental: as §1, §2
as §3, with “The cells were incubated with compounds for 72 hours in the presence of 0.5% of fetal bovine serum.” left out

[3] = system: Colon_HCT116 (HCT116, colon cancer); test: Cell proliferation assay (ATPlite), HCT116; format: cell-based; settings: Homo sapiens, HCT-116; TABLE C; 72 hours, 0.5% fetal bovine serum, ATP content; read-out: IC50 grading, Colon_HCT116
Experimental: as §1, §2
as §3, with “The cells were incubated with compounds for 72 hours in the presence of 0.5% of fetal bovine serum.” left out

Lyn Kinase = Lyn Kinase (Homo sapiens, UniProt P07948); test: Kinase panel (TABLE F), Lyn Kinase; format: biochemical
FGFR2 Kinase = FGFR2 Kinase (Homo sapiens, UniProt P21802); test: Kinase panel (TABLE F), FGFR2 Kinase; format: biochemical
[4] = system: Breast_MCF7 (MCF-7, breast adenocarcinoma); test: Cell proliferation assay (ATPlite), MCF7; format: cell-based; settings: Homo sapiens, TABLE C, 72 hours, 0.5% fetal bovine serum, ATP content, read-out: IC50 grading, Breast_MCF7
Experimental: as §1, §2
as §3, with “The cells were incubated with compounds for 72 hours in the presence of 0.5% of fetal bovine serum.” left out

[5] = system: Prostate_22RV1 (22RV1, prostate carcinoma); test: Cell proliferation assay (ATPlite), 22RV1; format: cell-based; settings: Homo sapiens
Experimental: as §1, §2
as §3, with “The cells were incubated with compounds for 72 hours in the presence of 0.5% of fetal bovine serum.” left out

Chain of FGFR2 Kinase (P21802 22-821): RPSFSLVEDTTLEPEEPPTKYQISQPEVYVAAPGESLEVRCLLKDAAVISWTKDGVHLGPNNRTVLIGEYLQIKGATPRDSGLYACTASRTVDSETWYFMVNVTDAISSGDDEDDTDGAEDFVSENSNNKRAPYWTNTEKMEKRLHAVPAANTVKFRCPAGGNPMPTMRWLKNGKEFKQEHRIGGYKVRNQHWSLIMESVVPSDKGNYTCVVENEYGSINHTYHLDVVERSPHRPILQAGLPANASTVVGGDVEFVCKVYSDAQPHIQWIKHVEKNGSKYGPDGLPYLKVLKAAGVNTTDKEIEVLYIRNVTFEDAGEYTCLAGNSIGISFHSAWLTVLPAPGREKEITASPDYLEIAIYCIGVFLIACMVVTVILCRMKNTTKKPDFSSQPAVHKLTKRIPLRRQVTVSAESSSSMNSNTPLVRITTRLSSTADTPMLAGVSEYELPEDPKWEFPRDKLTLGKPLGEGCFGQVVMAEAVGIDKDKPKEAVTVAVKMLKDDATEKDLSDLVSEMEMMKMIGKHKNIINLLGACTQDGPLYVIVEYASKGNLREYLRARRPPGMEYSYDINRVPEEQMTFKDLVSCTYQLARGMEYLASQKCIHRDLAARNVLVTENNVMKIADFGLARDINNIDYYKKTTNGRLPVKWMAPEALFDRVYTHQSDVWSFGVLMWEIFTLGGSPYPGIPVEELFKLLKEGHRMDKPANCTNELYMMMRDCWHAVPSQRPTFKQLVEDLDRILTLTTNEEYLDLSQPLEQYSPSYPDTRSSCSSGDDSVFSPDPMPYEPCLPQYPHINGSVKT
Chain of Lyn Kinase (P07948 whole entry): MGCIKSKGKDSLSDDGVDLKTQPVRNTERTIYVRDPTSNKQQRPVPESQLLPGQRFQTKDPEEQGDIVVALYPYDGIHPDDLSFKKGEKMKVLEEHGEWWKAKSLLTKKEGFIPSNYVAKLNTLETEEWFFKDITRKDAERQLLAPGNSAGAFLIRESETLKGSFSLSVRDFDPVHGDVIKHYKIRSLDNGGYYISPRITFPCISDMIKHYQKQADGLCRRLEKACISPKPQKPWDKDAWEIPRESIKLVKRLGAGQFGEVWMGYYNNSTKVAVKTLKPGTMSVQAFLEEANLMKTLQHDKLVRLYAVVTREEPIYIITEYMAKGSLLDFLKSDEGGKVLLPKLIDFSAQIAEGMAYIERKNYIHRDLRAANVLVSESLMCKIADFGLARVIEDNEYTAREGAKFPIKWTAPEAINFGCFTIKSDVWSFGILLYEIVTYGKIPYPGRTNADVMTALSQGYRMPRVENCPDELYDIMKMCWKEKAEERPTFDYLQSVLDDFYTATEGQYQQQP

C#Cc1cccc(Nc2ncnc3cc(OC)c(OCCCCCCC(=O)NO)cc23)c1 [Compound 12]
IC50 (Lung_H460): 100 to 1000 nM
dose without significant change in body weight [1]: up to 200 mg/kg
IC50 ([2]; TABLE C, 72 hours, 0.5% fetal bovine serum, ATP content, read-out: IC50 grading, Prostate_PC3): 100 to 1000 nM
IC50 ([2]; TABLE D, Prostate adenocarcinoma, read-out: IC50 grading, PC-3): 500 to 5000 nM
IC50 [3]: 100 to 1000 nM
inhibition at 5 µM (Lyn Kinase): 95%
inhibition at 5 µM (FGFR2 Kinase): 73%
IC50 [4]: < 100 nM
IC50 ([5]; TABLE C, 72 hours, 0.5% fetal bovine serum, ATP content, read-out: IC50 grading, Prostate_22RV1): 100 to 1000 nM
IC50 ([5]; TABLE D, Prostate carcinoma, read-out: IC50 grading, 22RV1): 50 to 500 nM
